Test system: LPS-induced release of TNFα from PBMCs from healthy donors
Experiment: ELISA-based TNFα release assay, PBMCs from healthy donors
Assay type: cell-based
Settings: Homo sapiens, PBMC; recombinant murine antibodies 1 μg/ml; Batimastat 10 μM; LPS 50 ng/ml, 2 hours
Experimental: In the following study, ELISA-based TNFα release assays were performed to analyze the inhibitory effects of the antibodies of the present disclosure on LPS-induced release of endogenous TNFα from primary human material obtained from healthy donors using peripheral blood mononuclear cells (PBMCs).
In brief, on day 1, Nunc black MaxiSorp® 96-well plates (Thermo Fisher Scientific, USA) were coated overnight with 100 μl per well of mouse anti-human TNFα capture antibody (provided as part of the DuoSet ELISA kit) at 4 μg/ml TBS at 4° C. On day 2, the capture antibody solution was removed and MaxiSorp® plates were blocked with 300 μl per well of TBS, 1% BSA at room temperature for 3 hours. […] Using an infinite M1000 (Tecan Group, Switzerland) microplate reader, the fluorescence of each well was collected at an excitation wavelength of 435 nm and an emission wavelength of 555 nm.

SMILES: CNC(=O)[C@H](Cc1ccccc1)NC(=O)[C@H](CC(C)C)[C@H](CSc1cccs1)C(=O)NO [Batimastat]
- inhibition at 10 µM: 99.6%

Source: patent US20240174744A1, “METHODS OF TREATMENT USING PROTEIN BINDERS TO IRHOM2 EPITOPES” (SCIRHOM GMBH, priority 2021, published 2024)
